Data as given in patent US9789096B2, “Methods and compositions for selective and targeted cancer therapy” (Board of Regents of the University of Texas System, priority 2013, dated 2017).
Read-outs that look alike come from different tables or passages of the source.

Assays:
Type in all cases: cell-based, human
HBEC30KT = assay: Cell viability (ATP, Cell Titer Glo, 4 days), HBEC30KT; conditions: Homo sapiens
Protocol: (§1) FIG. 6A. […] Cell viability is plotted vs. compound concentration. Compound was added to cells plated at 15% confluence in 96-well plates in RPMI-1640 media supplemented with 5% Fetal Bovine Serum and 2 mM L-Glutamine. After 4 days of incubation, ATP levels were measured using Cell Titer Glo (Promega). Data are presented as the average of 2 replicates ±SEM.
(§2) Selectivity may be measured by the half maximal inhibitory concentration (IC50), which, as used herein, is a measure of the effectiveness of a compound in killing cells. This quantitative measure indicates how much of a particular compound is needed to kill a particular cell population by half (e.g., as indicated by the amount of ATP). […] The IC50 can be determined by constructing a dose-response curve. The lower the IC50, the higher the potency, and the greater the difference between IC50 values for different cell lines (e.g., sensitive lines vs. insensitive lines, and sensitive lines vs. normal lines) the greater the selectivity. […]

HCC44 = assay: Cell viability dose-response, HCC44; conditions: read-out: IC50 (uM) vs indicated non-small cell lung cancer cell line HCC44
How it was run: (§3)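 IC50 values derive from 12-point, 3-fold dilution curves starting at 50 micromolar, run in duplicate. ATP content was read by CellTiter-Glo after 4 days of compound treatment. Cells were plated at 15% confluence in RPMI-1640 containing 5% FBS and 2 mM L-glutamine.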

H2122 = assay: Cell viability dose-response, H2122
How it was run: (§4)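 Cells plated at 15% confluence in RPMI-1640 with 5% FBS and 2 mM L-glutamine, treated with compound in a 12-point, 3-fold dilution series from 50 micromolar, in duplicate. ATP measured by Cell Titer Glo after 4 days; IC50 taken from the dose-response curve.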

H2009 = assay: Cell viability dose-response, H2009; conditions: Homo sapiens, NCI-H2009; Tables 3 and 4; read-out: IC50 (uM) vs indicated non-small cell lung cancer cell line H2009
How it was run: as §3

H1819 = assay: Cell viability dose-response, H1819; conditions: Homo sapiens
How it was run: as §4

H2073 = assay: Cell viability dose-response, H2073; conditions: Homo sapiens, NCI-H2073, Tables 3 and 4; read-out: IC50 (uM) vs indicated non-small cell lung cancer cell line H2073
Protocol: as §1, §2
(§5) With this information, we synthesized and tested a series of small molecules derived in conception from the oxalamide and chromone scaffold including N-acyl ureas, as shown in Tables 6-8. Each compound was tested in a 12-point dose-response study starting at 50 micromolar and decreasing in 3-fold increments to sub-nanomolar concentrations, in duplicate. Additionally, one or more additional cell line was tested in the same way.

HCC4017 = assay: Cell viability dose-response, HCC4017; conditions: read-out: IC50 (uM) vs indicated non-small cell lung cancer cell line HCC4017
Protocol: as §1, §2, §5

[1] = Tables 3 and 4, read-out: HBEC30KT IC50
[2] = Homo sapiens, HCC44, Tables 3 and 4
[3] = Homo sapiens, NCI-H2122, Tables 3 and 4, read-out: IC50 (uM) vs indicated non-small cell lung cancer cell line H2122
[4] = NCI-H1819, Tables 3 and 4, read-out: IC50 (uM) vs indicated non-small cell lung cancer cell line H1819
[5] = 12-point dose-response starting at 50 micromolar, 3-fold increments, in duplicate, read-out: toxicity data, HBEC30KT
[6] = Homo sapiens, NCI-H2122, 12-point dose-response starting at 50 micromolar, 3-fold increments, in duplicate, read-out: toxicity data, H2122
[7] = NCI-H1819, 12-point dose-response starting at 50 micromolar, 3-fold increments, in duplicate, read-out: toxicity data, H1819
[8] = Homo sapiens, HCC4017, Tables 3 and 4

SMILES	IC50 (HBEC30KT; [1]) [µM]	IC50 (H2122; [3]) [µM]	IC50 (H2009) [µM]	IC50 (H1819; [4]) [µM]	IC50 (H2073) [µM]	IC50 (HBEC30KT; [5]) [µM]	IC50 (H2122; [6]) [µM]	IC50 (H1819; [7]) [µM]	other results
O=C(Nc1ccc(NC(=O)c2sc3ccccc3c2Cl)cc1)c1ccco1 [SW163400]	69.3	0.897							IC50 (HCC44; [2]): 723 µM
COc1ccc(C(=O)Nc2nc3ccccc3s2)cc1 [SW003087]	100	2.62	31.3	37.4	11.7				
CCOC(=O)c1c(NC(=O)c2ccccc2)sc2c1CCCC2 [SW202858-1]	48.8	2.69	38.6						
COc1ccc(CCNC(=O)C(=O)Nc2cccc(C#N)c2)cc1 [SW207021-1]						49.5	0.407	≥ 49.5	
COc1ccc(CCNC(=O)C(=O)Nc2ccc(Cl)cc2C(F)(F)F)cc1 [SW207013-1]						49.5	≥ 49.5	≥ 49.5	
NC(=O)c1ccccc1NC(=O)c1sc2ccccc2c1Cl [SW119800]	85.4	2.66							IC50 (HCC44; [2]): 206 µM; IC50 (HCC4017; [8]): 467 µM
COc1cccc(C(=O)Nc2nc3ccc(OC)cc3s2)c1 [SW202747]	29.5	0.306	21.2	20.5	10.3				
Cc1cccc(C(=O)Nc2nc3ccccc3s2)c1 [SW202755]	106	0.734	53.9	47.8	25.1				
COc1ccccc1CCNC(=O)C(=O)Nc1ccc(Cl)cc1 [SW207004-1]						49.5	≥ 49.5	≥ 49.5	
COc1ccc(CCNC(=O)C(=O)Nc2cc(Cl)ccc2OC)cc1 [SW207011-1]						49.5	≥ 49.5	≥ 49.5	
COc1ccc(CCNC(=O)C(=O)NCc2ccc(OC)cc2)cc1 [SW207018-1]						49.5	≥ 49.5	≥ 49.5	
COc1ccc2nc(NC(=O)Cc3ccccc3)sc2c1 [SW202749]	234	60.4	75.2	57.6	70.4				
COc1ccc2nc(NC(=O)c3ccccc3)sc2c1 [SW202743]	22.3	0.538	20.6	19.8	7.04				
COc1ccc2nc(NS(=O)(=O)c3ccc([N+](=O)[O-])cc3)sc2c1 [SW166933]	4950	490		55.2	55.4				
O=S(=O)(Nc1nc2ccccc2s1)c1ccc(C(F)(F)F)cc1 [SW202754]	198	35.4	32.7	30.2	24.8				
COc1ccc(C(=O)Nc2nc3ccc(OC)cc3s2)cc1 [SW202745]	336	1.09		64.3	2.12				
O=C(NCCc1ccc(Cl)cc1)C(=O)Nc1ccc(Cl)cc1 [SW207008-1]						49.5	≥ 49.5	≥ 49.5	
COc1ccc2nc(NC(=O)c3ccc([N+](=O)[O-])o3)sc2c1 [SW202753]	20	4.36	13.4	18.2	6.25				
COc1ccc(CCNC(=O)C(=O)Nc2cc(C(F)(F)F)c(Br)c(C(F)(F)F)c2)cc1 [SW207012-1]						18	11.8	≥ 49.5	
COc1ccc(CCNC(=O)C(=O)Nc2ccc(C)c(Cl)c2)cc1 [SW207020-1]						49.5	0.602	≥ 49.5	
O=C(Nc1cccc(F)c1)c1sc2ccccc2c1Cl [SW202550]	105	1.91							IC50 (HCC44; [2]): 0.566 µM; IC50 (HCC4017; [8]): 17.3 µM
COc1ccc2nc(NS(=O)(=O)c3ccccc3)sc2c1 [SW202750]	127			144	97.6				
COc1ccc(CCNC(=O)C(=O)Nc2ccccc2Br)cc1 [SW207009-1]						49.5	≥ 49.5	≥ 49.5	

SMILES	IC50 (HBEC30KT; [1]) [µM]	IC50 (H2122; [3]) [µM]	IC50 (H2009) [µM]	IC50 (H1819; [4]) [µM]	IC50 (H2073) [µM]	IC50 (HBEC30KT; [5]) [µM]	IC50 (H2122; [6]) [µM]	IC50 (H1819; [7]) [µM]	other results
COc1ccc(CCNC(=O)C(=O)Nc2ccc(OC(F)(F)F)c([N+](=O)[O-])c2)cc1 [SW207010-1]						49.5	0.331	≥ 49.5	
O=C(Nc1ccc(F)cc1)c1sc2ccccc2c1Cl [SW006505]	63.9	1.7							IC50 (HCC44; [2]): 0.657 µM; IC50 (HCC4017; [8]): 262 µM
O=C(Nc1ccccc1N1CCCC1)c1sc2ccccc2c1Cl [SW174698]	4950	5.12							IC50 (HCC44; [2]): 3.06 µM; IC50 (HCC4017; [8]): 403 µM
O=C(Nc1cccc(NC(=O)c2sc3ccccc3c2Cl)c1)c1ccco1 [SW023008-2]	82.5	1.27							IC50 (HCC44; [2]): 105 µM; IC50 (HCC4017; [8]): 809 µM
Cc1ccc(NC(=O)c2sc3ccccc3c2Cl)c(F)c1 [SW202551]		1.36							IC50 (HCC44; [2]): 1.42 µM; IC50 (HCC4017; [8]): 390 µM
Nc1ccc2sc(NC(=O)c3ccccc3)nc2c1 [SW202741]	13	8.13	8.42	11.9	9.79				
CCOc1cccc(NC(=O)C(=O)NCCc2ccc(OC)cc2)c1 [SW207016-1]						49.5	23.8	≥ 49.5	
COc1ccc(CCNC(=O)C(=O)Nc2ccc(C(F)(F)F)c(Br)c2)cc1 [SW207015-1]						44.1	0.456	≥ 49.5	
COc1ccc2nc(NC(=O)c3cccc(C)c3)sc2c1 [SW202744]	36.2	1.16	24.8	53.5	25.6				
O=C(Nc1cccc(NC(=O)c2sc3ccccc3c2Cl)c1)c1cccc(Cl)c1 [SW023441-2]	31.8								IC50 (HCC44; Tables 3 and 4): 27.7 µM; IC50 (H2122; Tables 3 and 4, read-out: IC50 (uM) vs indicated non-small cell lung cancer cell line H2122): 0.473 µM; IC50 (HCC4017; Tables 3 and 4): 46 µM
COc1ccc2nc(NC(=O)c3ccc(Br)cc3)sc2c1 [SW000931]	360	2.62		308	2.33				
O=C(NCCc1ccc(Br)cc1)C(=O)Nc1ccc(Cl)cc1 [SW207005-1]						49.5	≥ 49.5	≥ 49.5	
COc1ccc(CNC(=O)C(=O)NCc2ccc(OC)cc2)cc1 [SW207019-1]						49.5	≥ 49.5	≥ 49.5	
COc1ccc2nc(NC(=O)c3ccc(F)cc3)sc2c1 [SW008027]	32.2	0.899	24.6	67.3	5.1				
O=C(O)c1sc2ccccc2c1Cl [SW138238]	4950		179	1170					
Cc1cccc(CCNC(=O)C(=O)Nc2ccc(Cl)cc2)c1 [SW207006-1]						49.5	≥ 49.5	≥ 49.5	
Cc1cc2sc(N)nc2cc1[N+](=O)[O-] [SW202740]	129		111	82.5	114				
COc1ccc(CCNC(=O)C(=O)Nc2ccc(C)c(Br)c2)cc1 [SW207014-1]						49.5	0.89	≥ 49.5	
COc1ccc(CCNC(=O)C(=O)Nc2ccc(Cl)cc2)cc1OC [SW207007-1]						49.5	≥ 49.5	≥ 49.5	
COc1ccc(C(=O)Nc2nc3cc(N)ccc3s2)cc1 [SW202739]	250	114	137	132	126				
COC(=O)c1ccc(C(=O)Nc2nc3cc(N)ccc3s2)cc1 [SW004400]	74.3	297	77.5	54.6	182				
COc1ccc(CCNC(=O)C(=O)Nc2ccc(C#N)cc2)cc1 [SW207017-1]						49.5	0.712	≥ 49.5	
